According to the supplement of paper PMC8253809:

How the values were obtained:
DIPGX29 [1] = H3.3 K27M diffuse intrinsic pontine glioma line; assay: EC50 (inflection of fitted growth-inhibition curve) (log10 M)
Method in brief: (§1)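 Treatment used a pin tool and a 10-point threefold dilution series, mean top concentration 35 μM, run in triplicate on patient-derived pHGG/DIPG cell lines and astrocyte controls in 1% Geltrex-coated 384-well plates. Plates were kept at 37 °C, 5% CO2 for 7 days (iAstro: 3 days). Log2-transformed CellTiter-Glo luminescence was scaled per plate to % activity between negative (solvent) and positive control wells and pooled before fitting. EC50 and maximal response (yFin) came from the three- or four-parameter log-logistic fit chosen by lowest AICc.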

DIPGX37 [2] = H3.3 K27M diffuse intrinsic pontine glioma line; assay: as above
Method in brief: as §1

HGGX39 [3] = paediatric high-grade glioma line; assay: as above
Method in brief: as §1

HGGX6 [4] = H3.3 G34R paediatric high-grade glioma line; assay: as above
Method in brief: as §1

DIPGX29 [5] = assay: maximal growth inhibition (yFin) relative to DMSO / staurosporine; higher = more efficacious
Method in brief: as §1

DIPGX37 [6] = assay: as above
Method in brief: as §1

HGGX39 [7] = assay: as above
Method in brief: as §1

HGGX6 [8] = assay: as above
Method in brief: as §1

DIPGX29 [9] = assay: area under dose-response curve of % growth inhibition (log2 RLU vs DMSO / staurosporine), 1e-11 to 1e-4 M (% x log10 M); higher = more growth inhibition
Method in brief: (§2)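 Patient-derived pHGG/DIPG cell lines and astrocytes were plated in 384-well plates coated with 1% Geltrex and treated in triplicate with a 10-point threefold dilution series whose mean top concentration was 35 μM, for 7 days (3 days for iAstro) at 37 °C and 5% CO2. CellTiter-Glo luminescence was log2-transformed and scaled on each plate to % activity between solvent and positive controls. Area under the curve came from the trapezoid rule applied to a fitted log-logistic curve, or to a smoothing spline where the sigmoid fit failed.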

DIPGX37 [10] = assay: as above
Method in brief: as §2

HGGX39 [11] = assay: as above
Method in brief: as §2

HGGX6 [12] = assay: as above
Method in brief: as §2

| Structure (SMILES) | EC50 (log10 M) (DIPGX29 [1]) | EC50 (log10 M) (DIPGX37 [2]) | EC50 (log10 M) (HGGX39 [3]) | EC50 (log10 M) (HGGX6 [4]) | maximal growth inhibition (DIPGX29 [5]) [%] | maximal growth inhibition (DIPGX37 [6]) [%] | maximal growth inhibition (HGGX39 [7]) [%] | maximal growth inhibition (HGGX6 [8]) [%] | area under dose-response curve (DIPGX29 [9]) | area under dose-response curve (DIPGX37 [10]) | area under dose-response curve (HGGX39 [11]) | area under dose-response curve (HGGX6 [12]) |
| --- | --- | --- | --- | --- | --- | --- | --- | --- | --- | --- | --- | --- |
| COc1cc(NC(C)CCCN)c2ncccc2c1 (centres undefined) [PRIMAQUINE] | -5.69 | -5.5 | -5.5 | -5.38 | 72.2 | 72.9 | 75.8 | 78 | 131 | 116 | 113 | 107 |
| NCCOc1cc(C(=O)Nc2cc(OCCN)c3ccccc3n2)nc(C(=O)Nc2cc(OCCN)c3ccccc3n2)c1 [PYRIDOSTATIN] | -5.01 | -5 | -4.99 | -5.03 | 61 | 31.7 | 59.6 | 56.9 | 74 | 54 | 58.1 | 82.2 |
| [O-][n+]1ccccc1[S-].[O-][n+]1ccccc1[S-].[Zn+2] [PYRITHIONE ZINC] | -5.6 | -5.23 | -5.61 | -5.55 | 82.5 | 93.1 | 83.5 | 75.7 | 130 | 112 | 135 | 116 |
| CCN(CC)CCCC(C)Nc1c2ccc(Cl)cc2nc2ccc(OC)cc12 (centres undefined) [QUINACRINE] | -4.79 | -4.78 | -4.75 | -4.97 | 74.8 | 72.4 | 74.3 | 74.3 | 79.9 | 56 | 55.7 | 73.7 |
| O=C(c1ccc(OCCN2CCCCC2)cc1)c1c(-c2ccc(O)cc2)sc2cc(O)ccc12 [RALOXIFENE] | -4.93 | -4.93 | -4.93 | -4.88 | 68.3 | 73.5 | 73.2 | 73.2 | 63.5 | 68.2 | 67.7 | 64.5 |
| CNC(=O)c1cc(Oc2ccc(NC(=O)Nc3ccc(Cl)c(C(F)(F)F)c3)c(F)c2)ccn1 [REGORAFENIB] | -4.87 | -5.37 | -5.33 | -5.33 | 37.6 | 43.5 | 33.2 | 38 | 39.5 | 62.5 | 55.2 | 70.8 |
| O=C(CCCCCCNC(=O)c1cnc(N(c2ccccc2)c2ccccc2)nc1)NO [ROCILINOSTAT] | -4.94 | -4.87 | -4.96 | -4.9 | 62.1 | 39.7 | 26.8 | 39.1 | 63.1 | 60.5 | 25.7 | 49.1 |
